From patent US20160326098A1, “Pharmaceutically Active Compound for Use as Anti-inflammatory Agent” (Pax Forschung GmbH, priority 2013, published 2016) come the findings set out here.

In one data set the test system is nitrite/nitrate (NOx). Kind of data set: Nitrite/nitrate level, colitis animals, comparison with GM-20 (FIG. 35). Conditions: 1.11 mmol/kg body weight, vs sham control group P. The format is in vivo, rats. On the procedure: The levels of plasma nitrite/nitrate (NOx), stable end products of NO were measured by the Griess reaction. This assay depends on the reduction of nitrate to nitrite, which is then converted into a colored azo dye compound that is detected spectrophotometrically at 540 nm.
The above-described clinical studies were repeated with animals having colitis which was induced as described above. 20 animals (rats) were randomly divided into four groups, wherein group L served as sham-operated control, having no colitis, group M served as second control having colitis but receiving no further treatment, group N having colitis and being treated with 1.11 mmol/kg body weight of ASS and group O having colitis and being treated with 1.11 mmol/kg of the compound according to the invention. One day after the animals received the enema with TNBS (40 mg/kg i.c.), wherein the animals of group L only received the respective solvent, the animals of group N and O were treated with ASS and the compound according to the invention, respectively. The other animals only received the respective solvent again. Two days after the enema the effects of the treatment were determined by measurement of body weight, blood gas analysis and biopsy. […] Surgery was performed to allow registration of the hemodynamic parameters at 1 h intervals for 6 h (cardiac output [CO] data were measured only at the end of the experiments). […] In addition, fluorescence confocal endomicroscopy was performed to examine the microvasculature and morphologic changes of the mucosa of the distal colon, and full-thickness tissue samples and venous blood samples were taken to determine the biochemical changes in the colon and plasma.
The tests were conducted according to the above described protocol. […] Comparative compound GM-20 is described in the state of the art as being suitable for the therapeutic treatment pathologic disorders characterized by degranulation of the mast cells caused by immunogenic hyperstimulation (see U.S. Pat. No. 5,506,224) The nitrite/nitrate level was measured as described above.

The nature of data set [1]: Body weight, mice with gastric injury without inflammation. In kind it is in vivo. Conditions: 1.11 mmol/kg force-fed, one day after gavage, FIG. 2. As to the method: First experiments regarding the effect of the compound of formula (I) and a pharmaceutical composition comprising the compound of formula (I) (clear aqueous solution of compound of formula (I) at pH 4.8), respectively, on gastric injury without inflammation were conducted on mice. 48 animals were randomly allocated into three groups. Group A (n=16) served as sham-operated controls. Samples of all animals were drawn on day 1 of the clinical tests. On day 2 the animals of group B (n=16) were force-fed acetylsalicylic acid (ASS) (1.11 mmol/kg body weight). Group C (n=16) was force-fed 1.11 mmol/kg body weight of the compound according to the invention. Group A only received the respective solvent (25% ethanol in water). One day after the gavage, additional samples were drawn. Fluorescence confocal endomicroscopy was performed to examine the microvasculature and morphologic changes of the mucosa of the distal colon, and full-thickness tissue samples and venous blood samples were taken to determine the biochemical changes in the colon and plasma. The effects were determined by way of measurement of body weight, blood gas analysation and biopsy. ASS was chosen as a comparative example due to its structural similarity and its known activity as anti-inflammatory agent.

In the next data set the test system is myeloperoxidase (MPO). As to the kind of experiment: Tissue myeloperoxidase activity, mice with gastric injury without inflammation. Conditions: gastric and duodenal tissue, one day after treatment with 1.11 mmol/kg, vs control group A, FIGS. 5a/5b. In kind it is in vivo. As to the method: […] The homogenate was centrifuged at 4° C. for 20 minutes at 24,000 g, and the supernatant was loaded into centrifugal tubes (Amicon Centricon-100; 100,000-molecular-weight cutoff ultrafilter, Millipore Corporation, Bedford, Mass.). The activity of myeloperoxidase (MPO) was measured on the pellet of the homogenate.
The activity of MPO as a marker of tissue leukocyte infiltration was measured on the pellet of the homogenate. Briefly, the pellet was resuspended in K3PO4 buffer (0.05 M; pH 6.0) containing 0.5% […]. […] The reaction led to the hydrogen peroxide-dependent oxidation of tetramethylbenzidine, which could be detected spectrophotometrically at 450 nm (UV-1601 spetrophotometer; Shimadzu, Kyoto, Japan). Myeloperoxidase activities were measured at 37° C.; the reaction was stopped after 5 minutes by the addition of 0.2 ml of H2SO4 (2 M), and the resulting data were referred to the protein content.
First experiments regarding the effect of the compound of formula (I) and a pharmaceutical composition comprising the compound of formula (I) (clear aqueous solution of compound of formula (I) at pH 4.8), respectively, on gastric injury without inflammation were conducted on mice. […] The effects were determined by way of measurement of body weight, blood gas analysation and biopsy. […]

Turning to `CC(=O)Oc1ccccc1C(=O)O` [ASS, acetylsalicylic acid, reference compound], the nitrite/nitrate level entry in the data set on nitrite/nitrate (NOx) is “increased nitrite/nitrate level”. Also, the “change in body weight” value in data set [1] is “severe loss of body weight”. Moreover, the “myeloperoxidase (MPO) activity” value in the data set on myeloperoxidase (MPO) was “increased”.
The matching figures for `CC(=O)Oc1ccccc1C(=O)NC(CO)(CO)CO` [compound according to the invention]: “did not lead to an increase in the nitrite/nitrate level”, “only showed a minor loss in body weight” and “does not further enhance the inflammatory processes”.
